Experimental findings from publication PMC8125568 (2021) are described below.

Test [1] has as its system AU-RNA (poly A—poly U) (RNA, polymer) A/U. The experiment in a line: UV thermal denaturation, 260 nm. To be noted: Na+ (sodium cacodylate, I = 0.05 M), error ± 0.5, per base.
For test [2], the system named is AT-DNA (poly dAdT—poly dAdT) (DNA, polymer) AT. Description: fluorimetric titration, Scatchard. To be noted: Na+ (sodium cacodylate, I = 0.05 M); pH 7.0, 25 °C, 0.04% DMSO; n fixed 0.2; polynucleotide as phosphates; per base.
Test [3] has as its system AU-RNA (poly A—poly U) (RNA, polymer) A/U. Description: fluorimetric titration, Scatchard. To be noted: Na+ (sodium cacodylate, I = 0.05 M); pH 7.0, 25 °C, 0.04% DMSO; n fixed 0.2; polynucleotide as phosphates; per base.
Test [4] shares this test system. Description: circular dichroism titration. The note with it: Na+ (sodium cacodylate, I = 0.05 M); pH 7.0, room temperature; RNA 20 µM; CD spectrum somewhat changed. On the technique in general: Circular dichroism is widely used to follow secondary structure.

With `Cc1sc(C(=O)NCCNC(=O)c2ccc3ccc4cccc5ccc2c3c45)cc1C1=C(c2cc(C(=O)NCCNC(=O)c3ccc4ccc5cccc6ccc3c4c56)sc2C)CCC1`, the “∆Tm” value in test [1] (pH 7.0, 0.5% DMSO, r = 0.3, RNA 20 µM, two transitions (first/second)) is 0/23.4 °C. For the same molecule, the logKs in test [2] was 6.3 log M^-1; in test [3], 6.1 log M^-1.

Take `CC12SC(C(=O)NCCN)=CC1=C1CCCC1=C1C=C(C(=O)NCCN)SC12C` (stereo not drawn): in test [4], the binding result was “weak”.

In the case of `Cc1sc(C(=O)NCCN)cc1C1=C(c2cc(C(=O)NCCN)sc2C)CCC1`, in test [1] (pH 7.0, r = 0.3), the “∆Tm” value is −0.7 °C.

Turning to `CC12SC(C(=O)NCCNC(=O)c3ccc4ccc5cccc6ccc3c4c56)=CC1=C1CCCC1=C1C=C(C(=O)NCCNC(=O)c3ccc4ccc5cccc6ccc3c4c56)SC12C` (stereo not drawn), in test [1] (pH 7.0, 4% DMSO, r = 0.3, no stabilisation), the “∆Tm” value was found to be 0.3 °C.
